From US12168650B2, “Crystalline forms of 3-(5-(2-hydroxy-2-methylpropoxy)-6-methylpyrazin-2-yl)-1H-indole-7-carbonitrile” (NIDO BIOSCIENCES, INC., priority 2022, dated 2024)
≈ marks a conversion by molar mass, not a printed value. Read-outs that look alike come from different tables or passages of the source.

Columns and labels:
Type in all cases: physicochemical
[1] = Solubility in aqueous media at 37° C.; details: for XRPD of residual solids: 24 h; for solubility at 2 h / solubility at 24 h: thermodynamic from solid
Protocol: The anhydrate Form C (equivalent to 8 mg of free form) was weighed into a 20 mL glass vial. 4 mL of solubility medium was added. Obtained suspensions were stirred at 37° C. at 400 rpm. Some of the suspensions were taken out at 2 hours and 24 hours, respectively. Then they were centrifuged at 3700 at 14,000 rpm for 5 (m. Supernatants were analyzed by HPLC and pH meter for solubility and pH, respectively. Residual solids (wet cakes) were characterized by XRPD to determine physical form.

[2] = Interconversion of polymorphs (heating, dehydration, humidity, equilibration)
Description: In total, 15 forms were identified to be polymorphs or pseudo-polymorphs of the free form, including seven anhydrates, Forms A, C, H, J, K. L and O; four hydrates, Forms B, F, M and N; and three solvates, Forms D, E and I. In addition, a metastable form, Form G, and an amorphous form were also obtained.
The interconversion relation of polymorphs identified is outlined in FIG. 5.

[3] = Solubility in solvents and mixture solvents
Description: As there may be potential Form A/H (Anhydrate) or Form I (THF solvate) in water or THF system according to the polymorph screening report, the use of water and THF were avoided in following study. […]

[4] = Bulk stability of Form C over 1 week; details: for Bulk (XRPD) / Color / Purity, Bulk (HPLC): Solid state
Protocol: Bulk stability of Form C was evaluated at 25° C./92% RH in an open container, at 40° C./75% RH in an open container and at 60° C. in a tight container over 1 week.

[5] = pH 7.0 phosphate buffer (50 mM)
[6] = aqueous buffer, pH 3.0 citrate buffer (50 mM)
[7] = aqueous buffer, pH 5.0 acetate buffer (50 mM)
[8] = aqueous buffer, pH 7.0 phosphate buffer (50 mM)
[9] = simulated gastric fluid, pH 1.0 HCl solution (0.1N)
[10] = 25° C./92% RH, open container, 1 week
[11] = 40° C./75% RH, open container, 1 week
[12] = 60° C., tight container, 1 week

Cc1nc(-c2c[nH]c3c(C#N)cccc23)cnc1OCC(C)(C)O [Form C, 3-(5-(2-hydroxy-2-methylpropoxy)-6-methylpyrazin-2-yl)-1H-indole-7-carbonitrile]
XRPD of residual solids ([1]; pH 1.0 HCl solution (0.1N)): Form C | XRPD of residual solids ([1]; pH 3.0 citrate buffer (50 mM)): Form C | XRPD of residual solids ([1]; pH 5.0 acetate buffer (50 mM)): Form C | XRPD of residual solids [1, 5]: Form C | solubility at 2 h [1, 6]: 5.97 µg/mL (≈ 0.0185 mM) | solubility at 24 h [1, 6]: 4.08 µg/mL (≈ 0.0127 mM) | solubility at 2 h [1, 7]: 5.44 µg/mL (≈ 0.0169 mM) | solubility at 24 h [1, 7]: 3.85 µg/mL (≈ 0.0119 mM) | solubility at 2 h [1, 8]: 5.43 µg/mL (≈ 0.0168 mM) | solubility at 24 h [1, 8]: 11.6 µg/mL (≈ 0.0359 mM) | 24 h (pH) of supernatant ([1]; pH 1.0 HCl solution (0.1N)): 1.0 | 24 h (pH) of supernatant ([1]; pH 3.0 citrate buffer (50 mM)): 3.1 | 24 h (pH) of supernatant ([1]; pH 5.0 acetate buffer (50 mM)): 5.1 | 24 h (pH) of supernatant [1, 5]: 7.3 | solubility at 2 h [1, 9]: 17 µg/mL (≈ 0.0528 mM) | solubility at 24 h [1, 9]: 14.6 µg/mL (≈ 0.0452 mM) | Stability compared to the other polymorph forms [2]: most stable polymorph | XRPD ([3]; 2-ME-THF/n-hep mixtures, 50 ° C. (printed at 4/0.5, probably merged for all rows)): Form C | Solubility ([3]; 2-MeTHF, 25° C.): 117 mg/mL solvent | Solubility ([3]; 2-MeTHF, 50° C.): 154 mg/mL solvent | Solubility ([3]; 2-MeTHF/n-heptane 1/1 (v/v), organic solvent or mixture, thermodynamic from solid, 2-ME-THF/n-hep = 1/1 (v/v), 25 ° C., read-out: Solubility): 13000 µg/mL (≈ 40.3 mM) | Solubility ([3]; 2-MeTHF/n-heptane 1/2 (v/v), organic solvent or mixture, thermodynamic from solid, 2-ME-THF/n-hep = 1/2 (v/v), 25 ° C., read-out: Solubility): ~4000 µg/mL (≈ 12.4 mM) | Solubility ([3]; 2-MeTHF/n-heptane 1/3 (v/v), organic solvent or mixture, thermodynamic from solid, 2-ME-THF/n-hep = 1/3 (v/v), 25 ° C., read-out: Solubility): ~2000 µg/mL (≈ 6.2 mM) | Solubility ([3]; 2-MeTHF/n-heptane 4/0.5 (v/v), organic solvent or mixture, thermodynamic from solid, 2-ME-THF/n-hep = 4/0.5 (v/v), 50 ° C., read-out: Solubility): 122000 µg/mL (≈ 378 mM) | Solubility ([3]; 2-MeTHF/n-heptane 4/1 (v/v), organic solvent or mixture, thermodynamic from solid, 2-ME-THF/n-hep = 4/1 (v/v), 50 ° C., read-out: Solubility): 90000 µg/mL (≈ 279 mM) | Solubility ([3]; 2-MeTHF/n-heptane 4/2 (v/v), organic solvent or mixture, thermodynamic from solid, 2-ME-THF/n-hep = 4/2 (v/v), 50 ° C., read-out: Solubility): 49000 µg/mL (≈ 152 mM) | Solubility ([3]; 2-MeTHF/n-heptane 4/4 (v/v), organic solvent or mixture, thermodynamic from solid, 2-ME-THF/n-hep = 4/4 (v/v), 50 ° C., read-out: Solubility): 21000 µg/mL (≈ 65.1 mM) | Solubility ([3]; 2-MeTHF/n-heptane 4/8 (v/v), organic solvent or mixture, thermodynamic from solid, 2-ME-THF/n-hep = 4/8 (v/v), 50 ° C., read-out: Solubility): 10000 µg/mL (≈ 31 mM) | Solubility ([3]; 2-MeTHF/n-heptane 4/12 (v/v), organic solvent or mixture, thermodynamic from solid, 2-ME-THF/n-hep = 4/12 (v/v), 50 ° C., read-out: Solubility): 5000 µg/mL (≈ 15.5 mM) | Solubility ([3]; Acetone, 25° C.): 66 mg/mL solvent | Solubility ([3]; Acetone, 50° C.): 122 mg/mL solvent | Solubility ([3]; EA, 25° C.): 32 mg/mL solvent | Solubility ([3]; EA, 50° C.): 58 mg/mL solvent | XRPD ([3]; EA, 50° C. (cell printed at this row, probably merged downwards)): Form C | Solubility ([3]; Ethanol, 25° C.): 27 mg/mL solvent | Solubility ([3]; Ethanol, 50° C.): 64 mg/mL solvent | Solubility ([3]; Heptane, 25° C.): ~2 mg/mL solvent | Solubility ([3]; Heptane, 50° C.): ~3 mg/mL solvent | Solubility ([3]; IPA, 25° C.): 14 mg/mL solvent | Solubility ([3]; IPA, 50° C.): 29 mg/mL solvent | Solubility ([3]; MCH, 25° C.): ~3 mg/mL solvent | Solubility ([3]; MCH, 50° C.): ~3 mg/mL solvent | Solubility ([3]; MEK, 25° C.): 63 mg/mL solvent | Solubility ([3]; MEK, 50° C.): 110 mg/mL solvent | Solubility ([3]; MEK/n-heptane 1/1 (v/v), organic solvent or mixture, thermodynamic from solid, MEK/n-hep = 1/1 (v/v), 25 ° C., read-out: Solubility): 16000 µg/mL (≈ 49.6 mM) | Solubility ([3]; MEK/n-heptane 1/2 (v/v), organic solvent or mixture, thermodynamic from solid, MEK/n-hep = 1/2 (v/v), 25 ° C., read-out: Solubility): 6000 µg/mL (≈ 18.6 mM) | Solubility ([3]; MEK/n-heptane 1/3 (v/v), organic solvent or mixture, thermodynamic from solid, MEK/n-hep = 1/3 (v/v), 25 ° C., read-out: Solubility): ~3000 µg/mL (≈ 9.31 mM) | Solubility ([3]; MIBK, 25° C.): 21 mg/mL solvent | Solubility ([3]; MIBK, 50° C.): 28 mg/mL solvent | Solubility ([3]; THF, 25° C.): 247 mg/mL solvent | Solubility ([3]; THF, 50° C.): >200 mg/mL solvent | Solubility ([3]; Toluene, 25° C.): 5 mg/mL solvent | Solubility ([3]; Toluene, 50° C.): 5 mg/mL solvent | XRPD ([3]; Water, 25° C. (cell printed at this row, probably merged downwards)): Form C | Solubility ([3]; Water, 25° C., read-out: Solubility): ~1000 µg/mL (≈ 3.1 mM) | Solubility ([3]; Water, 50° C.): ~0 mg/mL solvent | XRPD ([3]; Water, 50° C. (cell printed at this row, probably merged downwards)): Form C | Solubility ([3]; acetone/n-heptane 1/1 (v/v), organic solvent or mixture, thermodynamic from solid, Acetone/n-hep = 1/1 (v/v), 25 ° C., read-out: Solubility): 18000 µg/mL (≈ 55.8 mM) | Solubility ([3]; acetone/n-heptane 1/2 (v/v), organic solvent or mixture, thermodynamic from solid, Acetone/n-hep = 1/2 (v/v), 25 ° C., read-out: Solubility): 10000 µg/mL (≈ 31 mM) | Solubility ([3]; acetone/n-heptane 1/3 (v/v), organic solvent or mixture, thermodynamic from solid, Acetone/n-hep = 1/3 (v/v), 25 ° C., read-out: Solubility): 5000 µg/mL (≈ 15.5 mM) | Solubility in words ([3]; in acetone, THF, 2-MeTHF, and MEK): high solubility | Solubility in words ([3]; in water, n-heptane, and MCH): poor solubility | XRPD ([3]; mixture solvents, 25 ° C. (printed at Acetone/MCH = 1/1, probably merged for all rows)): Form C | Solubility ([3]; n-PrOH, 25° C.): 21 mg/mL solvent | Solubility ([3]; n-PrOH, 50° C.): 48 mg/mL solvent | Solubility ([3]; organic solvent or mixture, thermodynamic from solid, 2-MeTHF/MCH = 1/1 (v/v), 25 ° C., read-out: Solubility): 18000 µg/mL (≈ 55.8 mM) | Solubility ([3]; organic solvent or mixture, thermodynamic from solid, 2-MeTHF/MCH = 1/2 (v/v), 25 ° C., read-out: Solubility): 6000 µg/mL (≈ 18.6 mM) | Solubility ([3]; organic solvent or mixture, thermodynamic from solid, 2-MeTHF/MCH = 1/3 (v/v), 25 ° C., read-out: Solubility): ~4000 µg/mL (≈ 12.4 mM) | Solubility ([3]; organic solvent or mixture, thermodynamic from solid, Acetone/MCH = 1/1 (v/v), 25 ° C., read-out: Solubility): 30000 µg/mL (≈ 93.1 mM) | Solubility ([3]; organic solvent or mixture, thermodynamic from solid, Acetone/MCH = 1/2 (v/v), 25 ° C., read-out: Solubility): 15000 µg/mL (≈ 46.5 mM) | Solubility ([3]; organic solvent or mixture, thermodynamic from solid, MEK/MCH = 1/1 (v/v), 25 ° C., read-out: Solubility): 20000 µg/mL (≈ 62 mM) | Solubility ([3]; organic solvent or mixture, thermodynamic from solid, MEK/MCH = 1/2 (v/v), 25 ° C., read-out: Solubility): 9000 µg/mL (≈ 27.9 mM) | Bulk stability ([4]; 25° C./92% RH open, 40° C./75% RH open, 60° C. tight container, 1 week): physically and chemically stable | Bulk (XRPD) [4, 10]: Form C | Color [4, 10]: No color change | Purity, Bulk (HPLC) [4, 10]: 99.2% | Bulk (XRPD) [4, 11]: Form C | Color [4, 11]: No color change | Purity, Bulk (HPLC) [4, 11]: 99.1% | Bulk (XRPD) [4, 12]: Form C | Color [4, 12]: No color change | Purity, Bulk (HPLC) [4, 12]: 99.2% | Initial purity ([4]; before stress): 99.2%
